The target in one assay is T1, HMG-CoA reductase (Rattus norvegicus, UniProt P51639).
T1 sequence (P51639 1-887): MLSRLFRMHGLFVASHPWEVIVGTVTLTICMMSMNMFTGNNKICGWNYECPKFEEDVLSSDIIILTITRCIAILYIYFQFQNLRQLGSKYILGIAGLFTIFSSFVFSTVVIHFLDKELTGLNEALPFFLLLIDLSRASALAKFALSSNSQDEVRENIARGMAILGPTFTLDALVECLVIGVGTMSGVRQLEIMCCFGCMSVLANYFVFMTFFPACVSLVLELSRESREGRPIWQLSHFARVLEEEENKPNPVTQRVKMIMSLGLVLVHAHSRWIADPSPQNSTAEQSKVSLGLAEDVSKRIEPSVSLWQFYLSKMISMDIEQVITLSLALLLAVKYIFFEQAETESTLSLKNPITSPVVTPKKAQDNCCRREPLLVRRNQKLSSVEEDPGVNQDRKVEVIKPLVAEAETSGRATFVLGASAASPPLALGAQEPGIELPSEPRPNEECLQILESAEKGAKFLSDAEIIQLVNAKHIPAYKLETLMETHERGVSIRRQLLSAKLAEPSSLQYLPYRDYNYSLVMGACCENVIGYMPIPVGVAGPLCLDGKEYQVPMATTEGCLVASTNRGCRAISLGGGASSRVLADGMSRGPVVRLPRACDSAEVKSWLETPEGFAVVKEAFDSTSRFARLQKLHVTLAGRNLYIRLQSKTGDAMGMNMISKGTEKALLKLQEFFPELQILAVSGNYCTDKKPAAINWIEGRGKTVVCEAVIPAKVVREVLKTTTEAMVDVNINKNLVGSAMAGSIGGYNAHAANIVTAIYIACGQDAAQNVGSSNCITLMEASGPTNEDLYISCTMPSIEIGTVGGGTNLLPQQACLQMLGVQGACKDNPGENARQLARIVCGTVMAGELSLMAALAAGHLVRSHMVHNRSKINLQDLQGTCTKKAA
The conditions noted are these: compound at 10^−3 M; cited from earlier work.

For assay [1], the system named is Experimental autoimmune encephalomyelitis (EAE) in SJL/J mice. Briefly: EAE mouse model, clinical assessment (day of onset). The assay is classed as in vivo. As for the experimental part: To induce EAE, five-to-seven week old SJL/J (H-2S) female mice (Charles River; Wilmington, Mass.) were immunized subcutaneously with 200 μg PLP139-151 in a 0.2 mL emulsion comprised of equal volumes of phosphate-buffered saline (PBS) and complete Freund's adjuvant (CFA) containing killed Mycobacterium Tuberculosis strain H37RA (at a final concentration of 4 mg/ml, Difco, Detroit, Mich.). PLP139-151/CFA was administered to regions above the shoulder and the flanks (4 sites total; 50 μL at each injection site). In addition, 200 ng of pertussis toxin (List Biological Laboratories, Campbell, Calif.) was injected intraperitoneally on the day of immunization and 2 days post immunization.
Mice received intravenous injections of vehicle (PBS), HMG (25 μmol/mouse), or PLP-BPI (100 nmol/mouse) on days 4, 7, and 10 (n=6 per treatment group).

Assay [2] relates to serum cytokines and chemokines. Briefly: Serum cytokine and chemokine levels in EAE mice (multiplex ELISA array). In kind it is in vivo, mouse. As for the experimental part: FIG. 7 depicts serum levels of cytokines and chemokines in various treatment groups (PBS only control, PLP-BPI-treated, and HMG-treated) 14 days after immunization with PLP139-151/CFA to induce EAE. Data represent the mean±standard deviation. Statistical significance was determined by one way Analysis of Variance followed by post-hoc testing using the Tukey test.
Blood samples were collected from the facial vein in PBS-, HMG-, and PLP-BPI-treated mice on day 14 and day 28 (n=3 per group). Blood samples were allowed to clot overnight at 2-8° C. before centrifuging for 10 min at 2000×g. Serum was removed and stored at −80° C. until measurement of cytokines and chemokines was performed by a commercial analytical services laboratory.
The levels of key cytokines and chemokines were measured by multiplex ELISA array by a commercial analytical laboratory.
On the technique in general: An ELISA detects its analyte on a solid surface through an enzyme-linked reagent.

With `CCCCCCCCCCCCCCCC(O)(CC(=O)O)CC(=O)O` [3j], at HMG-CoA reductase, the “in vitro inhibition of HMGR @10^−3 M” value is 99.
`CCCCCCCCCCCCCCCCCCCC(O)(CC(=O)O)CC(=O)O` [3m]: the “in vitro inhibition of HMGR @10^−3 M” value at HMG-CoA reductase was 86.
Consider `CC(O)(CC(=O)O)CC(=O)O` [HMG, 3-hydroxy-3-methylglutaric acid], for which the “Disease phenotype as compared to vehicle only” value in assay [1] (EAE mice, i.v. on days 4, 7, 10) is “ameliorated disease phenotype”. Moreover, in assay [1] (SJL/J mice, HMG 25 μmol/mouse i.v. on days 4, 7, 10), the “Delay of average day of onset of EAE as compared to PBS treated mice” value was “about 2 days”. The “Day of onset of EAE (day when EAE clinical score is one or more)” value in assay [1] (SJL/J mice, i.v. on days 4, 7, 10, HMG 25 μmol/mouse, PLP-BPI 100 nmol/mouse, PBS group day 11) was determined as 13 days. In addition, the “Serum RANTES level” value in assay [2] (day 14, compared to PBS group) was “statistically significant reductions”. In assay [2] (day 14, compared to PBS- or PLP-BPI-treated mice), the “Serum IFN gamma concentration” value is recorded as “much lower”. Also, in assay [2] (day 14, compared to PLP-BPI-treated animals), the “Serum IL-17 level” value is “significantly lower”. Also, the “Inflammation as measured by levels of some cytokines” value in assay [2] (day 14, versus PBS only) is given as “reduced inflammation”. For the same compound, the “Serum IL-1 alpha level” value in assay [2] (day 14 after immunization, compared to PBS group) is “statistically significant reductions”.

These data come from patent US20120121554A1, “HMG-COA SECONDARY METABOLITES AND USES THEREOF” (EDENSPACE SYSTEMS CORPORATION, priority 2009, published 2012).
